{
  "source": "paper PMC12141336",
  "about": "“A dual inhibitor of TrxR1 and XIAP induces pyroptosis in melanoma” (Frontiers in Cell and Developmental Biology, 2025)",
  "key": {"[1]": {"biological_target": "T1, TrxR1 (thioredoxin reductase 1) (Rattus norvegicus, UniProt O89049)", "T1 construct": "gene Txnrd1", "T1 sequence (O89049 1-499)": "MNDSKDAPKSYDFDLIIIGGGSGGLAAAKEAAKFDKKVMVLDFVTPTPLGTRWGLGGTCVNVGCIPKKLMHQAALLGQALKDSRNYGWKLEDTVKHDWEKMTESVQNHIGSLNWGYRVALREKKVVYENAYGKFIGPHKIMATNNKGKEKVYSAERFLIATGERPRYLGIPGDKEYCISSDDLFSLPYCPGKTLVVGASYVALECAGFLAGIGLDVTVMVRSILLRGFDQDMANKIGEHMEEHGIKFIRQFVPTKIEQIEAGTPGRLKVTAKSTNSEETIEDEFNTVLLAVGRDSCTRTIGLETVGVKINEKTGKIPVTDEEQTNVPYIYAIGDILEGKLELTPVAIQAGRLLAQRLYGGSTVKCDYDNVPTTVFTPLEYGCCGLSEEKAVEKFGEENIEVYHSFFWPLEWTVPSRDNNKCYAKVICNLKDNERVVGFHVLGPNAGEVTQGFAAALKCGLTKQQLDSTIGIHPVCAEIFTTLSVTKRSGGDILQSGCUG", "assay": "fluorescence quenching (Stern-Volmer) with GST as control; also DTNB assay on recombinant TrxR1, IC50 […]", "format": "binding"}, "[2]": {"biological_target": "T1, TrxR1 (thioredoxin reductase 1)", "assay": "DTNB assay on purified recombinant TrxR1, […] h incubation"}},
  "data": [
    {"compound": "CC(=O)CC#[C][Au][P](c1ccccc1)(c1ccccc1)C1CCCCC1", "note": "[TRI-03]", "values": [
      {"measurement": "Kd", "setting": "[1]", "result": "0.31 ± 0.05", "unit": "µM"}
    ]},
    {"compound": "CC[P](CC)(CC)=[Au][S][C@@H]1O[C@H](COC(C)=O)[C@@H](OC(C)=O)[C@H](OC(C)=O)[C@H]1OC(C)=O", "note": "[auranofin]", "values": [
      {"measurement": "IC50", "setting": "[2]", "result": "1.47 ± 0.03", "unit": "µM"}
    ]}
  ]
}
